Experiment [1] deals with CT26 colon carcinoma cells. Briefly: Subcutaneous CT26 colon carcinoma model. It is filed as in vivo, BALB/C mice. As to the method:
FIG. 7A and FIG. 7B show CT26 (FIG. 7A) and MC-38 (FIG. 7B) viability following in vitro treatment with 3AC for 24 h at indicated doses. Relative viability is expressed as frequency compared to solvent only treated cells. Kill curve summarizes pooled data from three independent experiments using six replicate wells/concentration with mean±SEM indicated. BALB/C mice were challenged with subcutaneous injection of CT26 colon carcinoma cells in the right flank. Mice were treated with either 2 consecutive days of 3AC or vehicle control each week as in FIG. 4A. Tumor size at […] 28 days (FIG. 7C), and tumor weight on day 28 determined after dissection of tumor (FIG. 7E). […] C57BL/6 mice were challenged with subcutaneous injection of MC-38 colon carcinoma cells in the right flank. Mice were treated with either 2 consecutive days of SHIP inhibitor or vehicle control each week as in FIG. 4A. Tumor size at 14, 21 and 25 days (FIG. 7D), and tumor weight (FIG. 7F) on day 25 were determined after dissection of tumor. […] FIG. 7A (n=18 per group. One-way ANOVA with Dunnett's multiple comparisons. 0 μM vs. 20 μM Adjusted p value=0.0463. All other concentrations of SHIP inhibitor compared with solvent only N.S.). FIG. 7B (n=18 per group. One-way ANOVA with Dunnett's multiple comparisons. All concentrations of SHIP inhibitor compared with solvent only N.S.). FIGS. 7C-7F graphs represent data from one of two independent experiments. FIG. 7C (n=10. Day 14 p<0.0001, Unpaired t test with Welch's correction. Day 21 p<0.0001, two-tailed student's t-test. Day 28 p<0.0001, two-tailed Student's t-test). FIG. 7E (n=10. P<0.0001, two-tailed Student's t-test) FIG. 7D (n=10. Day 14 p=0.0005, two-tailed student's t-test. Day 21 p=0.0009, two-tailed Student's t-test. Day 25 p=0.0009, two-tailed student's t-test). FIG. 7F (n=10. P=0.0067, two-tailed student's t-test).
Colorectal cancer is the second leading cause of cancer mortality in the United States (Siegel, R. L. et al., Colorectal cancer statistics, 2017. CA Cancer J Clin. (2017)). […]

The next experiment deals with RMA-Rael cells. The experiment in a line: Acute rejection of RMA-Rael lymphoma, tumor burden by peritoneal lavage. It is filed as in vivo, mice. Here is the method: FIGS. 4A-4D show the effects of SHIP1 inhibition using 3AC in mice. 5×10^5 GFP-expressing RMA-Rael cells were injected into C57BL/6 (FIG. 4A), RAG1−/− (FIG. 4B), or into C57BL/6 hosts (FIG. 4C-4D) with antibody depleted (NK) or intact (Iso) NK cell compartment. Mice were treated with either SHIP inhibitor or vehicle for two days. Tumor burden was determined by flow cytometric analysis of peritoneal cavity contents recovered by peritoneal lavage performed on the third day. Graphs represent pooled data from two independent experiments using at least 4 SHIP inhibitor-treated mice and 4 vehicle-treated mice in each experiment. FIG. 4A (p=0.0433; Mann-Whitney U test). FIG. 4B (p=0.0007; Mann-Whitney U test). FIG. 4C (p=0.0153; Unpaired t test with Welch's correction). FIG. 4D (p=0.9188. Mann-Whitney U test).
To determine if acute SHIP inhibitor treatment promoted in vivo clearance of tumor cells expressing a ligand for such receptors, the ability of SHIP inhibitor treatment to increase host rejection of tumor targets in vivo using the C57BL/6-derived H2b T cell lymphoma, RMA-Rael was analyzed. NK cell mediated rejection of RMA- Rael cells requires perforin expression and is independent of IFNγ production, and thus this assay allows for interrogation of a different NK cell effector function than that analyzed in FIG. 3 (Hayakawa, Y. et al., Cutting edge: tumor rejection mediated by NKG2D receptor-ligand interaction is dependent upon perforin. J Immunol. (2002); 169: 5377-538). Mice were challenged with syngeneic tumor cells followed by treatment with 3AC or vehicle for 2 consecutive days. On the third day peritoneal lavage was performed to evaluate tumor burden. […] To assess whether NK cells contributed to acute tumor rejection the same experiment using NK cell depleted C57BL/6 hosts (DNK) was performed. […] This increase in tumor burden was not seen in vehicle treated mice that were also depleted of NK cells (FIG. 4D).

Entries after “also recorded” stand apart in the source; their conditions may differ.

Turning to `CC(C)CCC[C@@H](C)[C@H]1CC[C@H]2[C@@H]3CCC4C[C@H](N)CC[C@]4(C)[C@H]3CC[C@]12C` (stereo partly drawn) [Compound 3AC, 3-α-aminocholestane], the tumor weight entry in experiment [1] (day 28, vs vehicle) is on record as “significant reduction”. Besides, the tumor size result in experiment [1] (two consecutive days each week, days 14, 21, 28, vs vehicle) is “significant reduction”. The “histological analysis (H&E) of tumors” value in experiment [1] (vs vehicle) is listed as “prominent zones of tumor cell death”. In the experiment on RMA-Rael cells (3AC-treated hosts with intact NK cell compartment vs 3AC hosts depleted of NK cells), the tumor rejection result is reported as “significantly greater tumor rejection”. Further, the tumor burden result in the experiment with RMA-Rael cells (C57BL/6 hosts depleted of NK cells or not, 3AC vs vehicle) was “profound reduction of tumor burden; also recorded: large reduction in tumor burden”. Further, the lymphoma burden result with RMA-Rael cells (C57BL/6 hosts, 5×10^5 RMA-Rael, 2 consecutive days treatment, lavage on third day, vs vehicle) is given as “dramatic reduction”.
